pIC50: −log10 of the molar value.
The compounds below were run against α4β7 integrin (Homo sapiens (Human), UniProt P13612+P26010) (assay: MAdCAM-1/α4β7 integrin binding inhibitory activity evaluation test in the presence of serum (2)). Details: RPMI-8866 cells binding to mouse MAdCAM-1/Fc, same manner as Test (3), read-out: α4β7 Rank of activity with serum added.
Type: cell-based
Description: The ability of test substances to inhibit the binding of a human B cell line, RPMI-8866, which is known to express α4β7 integrin, to MAdCAM-1 was measured.
To 96-well microtiter plates, recombinant mouse MAdCAM-1/Fc (R&D systems) solution (1 μg/mL) diluted with buffer A (carbonate buffer, pH 9.6) was added at 50 μL/well, followed by incubation at 4° C. overnight. After washing once with PBS, Block Ace (Snow Brand Milk Products Company, Limited) was added at 150 μL/well, followed by incubation at room temperature for 2 hours. After removal, washing was conducted once with PBS.
100 μL of each test substance diluted with a binding buffer (DMEM containing 40 mM HEPES, 0.2% BSA, and 4 mM MnCl2) to various concentrations and 100 μL of RPMI-8866 cells (2×10^6 cell/mL) were added to plates coated with MAdCAM-1/Fc (5×10^5 cells/well) with human serum being contained at a final concentration of 50%, followed by incubation at 30° C. for 15 minutes to 60 minutes. After the cells were bound to each well, unbound cells were removed by washing with PBS. To the plates, buffer C (PBS containing 1.5% Triton X-100) was added at 50 μL/well to lyse the bound RPMI-8866 cells. To 30 μL of the cell lysate, 30 μL of Substrate Buffer (Promega, CytoTox 96 Non-Radioactive Cytotoxicity Assay) was added, and the reaction was allowed to proceed at room temperature in a dark place for 30 minutes. To each well, 30 μL of Stop Solution (Promega, CytoTox 96 Non-Radioactive Cytotoxicity Assay) was added, and the absorbance at 490 nm was measured by using a plate reader. Here, by the obtained absorbance, the activity of the lactate dehydrogenase (LDH) dissolved into the supernatant of each well was detected. In other words, the absorbance was proportional to the number of the RPMI-8866 cells bound to MAdCAM-1 and remaining on the plate. The test was duplicated. The binding ratios of the cells at various concentrations were determined, with the absorbance of a well containing no test substance taken as 100%. Then, the concentration IC50, at which 50% binding inhibition was achieved, was calculated.
The MAdCAM-1/α4β7 integrin binding inhibitory activity in the presence of serum was measured in the same manner as in Test (3) described above. […] The VCAM-1/α4β1 integrin binding inhibitory activity evaluation test and the MAdCAM-1/α4β7 integrin binding inhibitory activity evaluation test were carried out according to the methods described in Tests (1) and (2) described above.

α4β7 integrin, sequence (P13612 34-1032): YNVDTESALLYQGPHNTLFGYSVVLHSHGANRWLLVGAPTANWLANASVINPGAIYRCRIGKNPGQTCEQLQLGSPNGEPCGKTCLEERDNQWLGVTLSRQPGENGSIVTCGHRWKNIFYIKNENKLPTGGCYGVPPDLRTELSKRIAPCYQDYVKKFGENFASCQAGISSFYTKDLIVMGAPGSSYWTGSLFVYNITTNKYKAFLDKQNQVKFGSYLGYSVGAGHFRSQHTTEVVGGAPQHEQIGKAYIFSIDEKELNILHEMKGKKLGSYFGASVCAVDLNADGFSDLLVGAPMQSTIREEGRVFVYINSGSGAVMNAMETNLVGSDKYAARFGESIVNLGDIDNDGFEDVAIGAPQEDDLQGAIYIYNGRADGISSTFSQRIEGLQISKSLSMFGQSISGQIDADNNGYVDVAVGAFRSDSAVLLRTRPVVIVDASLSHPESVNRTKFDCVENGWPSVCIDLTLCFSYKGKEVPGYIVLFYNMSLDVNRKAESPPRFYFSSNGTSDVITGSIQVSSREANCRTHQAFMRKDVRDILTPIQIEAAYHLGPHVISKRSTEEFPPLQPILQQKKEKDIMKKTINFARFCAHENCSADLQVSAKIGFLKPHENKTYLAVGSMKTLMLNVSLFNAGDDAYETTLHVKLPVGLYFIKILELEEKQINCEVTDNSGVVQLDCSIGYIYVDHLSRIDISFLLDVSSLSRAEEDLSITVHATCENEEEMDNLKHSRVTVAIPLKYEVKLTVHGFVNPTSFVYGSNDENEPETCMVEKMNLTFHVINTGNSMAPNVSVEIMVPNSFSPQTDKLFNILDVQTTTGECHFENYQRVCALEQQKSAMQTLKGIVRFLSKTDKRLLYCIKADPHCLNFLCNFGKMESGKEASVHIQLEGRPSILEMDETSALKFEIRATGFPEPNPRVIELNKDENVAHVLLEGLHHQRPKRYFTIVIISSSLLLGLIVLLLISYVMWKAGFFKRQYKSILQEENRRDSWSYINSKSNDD
α4β7 integrin, sequence (P26010 20-798): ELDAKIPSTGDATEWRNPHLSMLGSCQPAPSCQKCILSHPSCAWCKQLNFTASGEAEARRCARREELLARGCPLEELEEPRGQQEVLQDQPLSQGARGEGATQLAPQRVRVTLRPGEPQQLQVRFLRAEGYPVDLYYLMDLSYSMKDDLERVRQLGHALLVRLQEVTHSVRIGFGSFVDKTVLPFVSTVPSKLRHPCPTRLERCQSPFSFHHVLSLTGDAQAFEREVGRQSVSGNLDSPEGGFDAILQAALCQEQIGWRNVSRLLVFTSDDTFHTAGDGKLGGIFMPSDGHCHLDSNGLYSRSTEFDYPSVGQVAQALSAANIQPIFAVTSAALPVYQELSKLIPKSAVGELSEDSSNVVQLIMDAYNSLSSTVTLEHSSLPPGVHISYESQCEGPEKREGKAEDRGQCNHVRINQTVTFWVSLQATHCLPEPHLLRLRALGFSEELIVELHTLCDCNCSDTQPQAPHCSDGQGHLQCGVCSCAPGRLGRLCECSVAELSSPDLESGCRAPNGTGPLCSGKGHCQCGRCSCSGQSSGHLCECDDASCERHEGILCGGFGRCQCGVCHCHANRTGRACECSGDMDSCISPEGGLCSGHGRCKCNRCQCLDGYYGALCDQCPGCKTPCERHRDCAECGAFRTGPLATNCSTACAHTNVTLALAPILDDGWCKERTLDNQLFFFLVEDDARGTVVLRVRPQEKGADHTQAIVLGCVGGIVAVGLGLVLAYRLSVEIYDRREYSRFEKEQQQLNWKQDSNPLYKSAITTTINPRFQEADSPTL

| SMILES | pIC50 |
| --- | --- |
| Cn1c(=O)n(-c2ccc(C[C@H](NC(=O)c3cc(F)c(NS(=O)(=O)c4ccccc4)cc3F)C(=O)O)nc2)c(=O)c2ccncc21 [Example 137, N-{2,5-Difluoro-4-[(phenylsulfonyl)amino]benzoyl}-3-[5-(1-methyl-2,4-dioxo-1,4-dihydropyrido[3,4-d]pyrimidin-3(2H)-yl)pyridin-2-yl]-L-alanine] | 6.70 to 7.30 |
| Cn1ccc(=O)n(-c2ccc(C[C@H](NC(=O)c3cc(F)c(NS(=O)(=O)c4ccc(-c5cncnc5)cc4)cc3F)C(=O)O)cc2)c1=O [Example 216, N-(2,5-Difluoro-4-{[(4-pyrimidin-5-ylphenyl)sulfonyl]amino}benzoyl)-4-(3-methyl-2,6-dioxo-3,6-dihydropyrimidin-1(2H)-yl)-L-phenylalanine] | 7.30 to 8.00 |
| Cc1cc(-c2ccc(S(=O)(=O)Nc3cc(F)c(C(=O)N[C@@H](Cc4ccc(-n5c(=O)c6ccncc6n(C)c5=O)cn4)C(=O)O)cc3F)nc2)cc(C)n1 [Example 227, N-(4-{[(2′,6′-Dimethyl-3,4′-bipyridin-6-yl)sulfonyl]amino}-2,5-difluorobenzoyl)-3-[5-(1-methyl-2,4-dioxo-1,4-dihydropyrido[3,4-d]pyrimidin-3(2H)-yl)pyridin-2-yl]-L-alanine] | 6.70 to 7.30 |
| Cn1ccc(=O)n(-c2ccc(C[C@H](NC(=O)c3c(F)cc(NS(=O)(=O)c4ccc(-n5cccc5)cn4)cc3F)C(=O)O)cc2)c1=O [Example 162, N-[2,6-Difluoro-4-({[5-(1H-pyrrol-1-yl)pyridin-2-yl]sulfonyl}amino)benzoyl]-4-(3-methyl-2,6-dioxo-3,6-dihydropyrimidin-1(2H)-yl)-L-phenylalanine] | 7.30 to 8.00 |
| Cn1c(=O)n(-c2ccc(C[C@H](NC(=O)c3cc(F)c(NS(=O)(=O)c4ccc5c(c4)C(=O)OC5)cc3F)C(=O)O)nc2)c(=O)c2ccncc21 [Example 233, N-(2,5-Difluoro-4-{[(3-oxo-1,3-dihydro-2-benzofuran-5-yl)sulfonyl]amino}benzoyl)-3-[5-(1-methyl-2,4-dioxo-1,4-dihydropyrido[3,4-d]pyrimidin-3(2H)-yl)pyridin-2-yl]-L-alanine] | 6.70 to 7.30 |
| CCc1ncc(-c2ccc(S(=O)(=O)Nc3cc(F)c(C(=O)N[C@@H](Cc4ccc(-n5c(=O)c6ccncc6n(C)c5=O)cn4)C(=O)O)cc3F)cc2)cn1 [Example 229, N-[4-({[4-(2-Ethylpyrimidin-5-yl)phenyl]sulfonyl}amino)-2,5-difluorobenzoyl]-3-[5-(1-methyl-2,4-dioxo-1,4-dihydropyrido[3,4-d]pyrimidin-3(2H)-yl)pyridin-2-yl]-L-alanine] | 6.70 to 7.30 |
| Cn1c(=O)n(-c2ccc(C[C@H](NC(=O)c3cc(F)c(NS(=O)(=O)c4ccc(-c5cncnc5)cn4)cc3F)C(=O)O)nc2)c(=O)c2ccncc21 [Example 220, N-(2,5-Difluoro-4-{[(5-pyrimidin-5-ylpyridin-2-yl)sulfonyl]amino}benzoyl)-3-[5-(1-methyl-2,4-dioxo-1,4-dihydropyrido[3,4-d]pyrimidin-3(2H)-yl)pyridin-2-yl]-L-alanine] | 7.30 to 8.00 |
| Cn1c(=O)n(-c2ccc(C[C@H](NC(=O)c3cc(F)c(NS(=O)(=O)c4ccc(-c5ncccn5)cn4)cc3F)C(=O)O)nc2)c(=O)c2ccncc21 [Example 222, N-(2,5-Difluoro-4-{[(5-pyrimidin-2-ylpyridin-2-yl)sulfonyl]amino}benzoyl)-3-[5-(1-methyl-2,4-dioxo-1,4-dihydropyrido[3,4-d]pyrimidin-3(2H)-yl)pyridin-2-yl]-L-alanine] | 6.70 to 7.30 |
| COc1cc2c(=O)n(-c3ccc(C[C@H](NC(=O)c4ccc(NS(=O)(=O)c5ccco5)cc4F)C(=O)O)cc3)c(=O)n(C)c2cn1 [Example 147, N-{2-Fluoro-4-[(2-furylsulfonyl)amino]benzoyl}-4-(6-methoxy-1-methyl-2,4-dioxo-1,4-dihydropyrido[3,4-d]pyrimidin-3(2H)-yl)-L-phenylalanine] | 7.30 to 8.00 |

Further lines, results first:

| pIC50 | SMILES |
| --- | --- |
| ≥ 8.00 | Cn1c(=O)n(-c2ccc(C[C@H](NC(=O)c3c(F)cc(NS(=O)(=O)c4ccc(C(=O)NC(C)(C)C)cc4)cc3F)C(=O)O)cc2)c(=O)c2ccncc21 [Example 168, N-{4-[({4-[(tert-Butylamino)carbonyl]phenyl}sulfonyl)amino]-2,6-difluorobenzoyl}-4-(1-methyl-2,4-dioxo-1,4-dihydropyrido[3,4-d]pyrimidin-3(2H)-yl)-L-phenylalanine] |
| 7.30 to 8.00 | Cn1c(=O)n(-c2ccc(C[C@H](NC(=O)c3cc(F)c(NS(=O)(=O)c4ccco4)cc3F)C(=O)O)cc2)c(=O)c2ccncc21 [Example 149, N-{2,5-Difluoro-4-[(2-furylsulfonyl)amino]benzoyl}-4-(1-methyl-2,4-dioxo-1,4-dihydropyrido[3,4-d]pyrimidin-3(2H)-yl)-L-phenylalanine] |
| 7.30 to 8.00 | Cn1ccc(=O)n(-c2ccc(C[C@H](NC(=O)c3c(F)cc(NS(=O)(=O)c4ccc(C(=O)NC5CCCCC5)cc4)cc3F)C(=O)O)cc2)c1=O [Example 169, N-{4-[({4-[(Cyclohexylamino)carbonyl]phenyl}sulfonyl)amino]-2,6-difluorobenzoyl}-4-(3-methyl-2,6-dioxo-3,6-dihydropyrimidin-1(2H)-yl)-L-phenylalanine] |
| 7.30 to 8.00 | CCNC(=O)c1ccc(S(=O)(=O)Nc2cc(F)c(C(=O)N[C@@H](Cc3ccc(-n4c(=O)cc(C(C)C)n(C)c4=O)cc3)C(=O)O)c(F)c2)cc1 [Example 156, N-{4-[({4-[(Ethylamino)carbonyl]phenyl}sulfonyl)amino]-2,6-difluorobenzoyl}-4-(4-isopropyl-3-methyl-2,6-dioxo-3,6-dihydropyrimidin-1(2H)-yl)-L-phenylalanine] |
| 7.30 to 8.00 | Cn1c(=O)n(-c2ccc(C[C@H](NC(=O)c3ccc(NS(=O)(=O)c4ccc(-c5cncnc5)cn4)cc3F)C(=O)O)cc2)c(=O)c2ccncc21 [Example 163, N-(2-Fluoro-4-{[(5-pyrimidin-5-yl-pyridin-2-yl)sulfonyl]amino}benzoyl)-4-(1-methyl-2,4-dioxo-1,4-dihydropyrido[3,4-d]pyrimidin-3(2H)-yl)-L-phenylalanine] |
| 7.30 to 8.00 | Cn1c(=O)n(-c2ccc(C[C@H](NC(=O)c3c(F)cc(NS(=O)(=O)c4ccc(-c5ccsc5)cc4)cc3F)C(=O)O)nc2)c(=O)c2ccncc21 [Example 178, N-[2,6-Difluoro-4-({[4-(3-thienyl)phenyl]sulfonyl}amino)benzoyl]-3-[5-(1-methyl-2,4-dioxo-1,4-dihydropyrido[3,4-d]pyrimidin-3(2H)-yl)pyridin-2-yl]-L-alanine] |
| 7.30 to 8.00 | Cn1c(=O)n(-c2ccc(C[C@H](NC(=O)c3ncc(NS(=O)(=O)c4ccc(-c5ncccn5)cn4)cc3F)C(=O)O)cc2)c(=O)c2ccncc21 [Example 154, N-[(3-Fluoro-5-{[(5-pyrimidin-2-yl-pyridin-2-yl)sulfonyl]amino}pyridin-2-yl)carbonyl]-4-(1-methyl-2,4-dioxo-1,4-dihydropyrido[3,4-d]pyrimidin-3(2H)-yl)-L-phenylalanine] |
| 7.30 to 8.00 | Cn1c(=O)n(-c2ccc(C[C@H](NC(=O)c3cc(F)c(NS(=O)(=O)c4ccc(-n5cncn5)cc4)cc3F)C(=O)O)nc2)c(=O)c2ccncc21 [Example 224, N-[2,5-Difluoro-4-({[4-(1H-1,2,4-triazol-1-yl)phenyl]sulfonyl}amino)benzoyl]-3-[5-(1-methyl-2,4-dioxo-1,4-dihydropyrido[3,4-d]pyrimidin-3(2H)-yl)pyridin-2-yl]-L-alanine] |
| 7.30 to 8.00 | CCc1ncc(-c2ccc(S(=O)(=O)Nc3cc(F)c(C(=O)N[C@@H](Cc4ccc(-n5c(=O)c6ccncc6n(C)c5=O)cc4)C(=O)O)cc3F)cc2)cn1 [Example 237, N-[4-({[4-(2-Ethylpyrimidin-5-yl)phenyl]sulfonyl}amino)-2,5-difluorobenzoyl]-4-(1-methyl-2,4-dioxo-1,4-dihydropyrido[3,4-d]pyrimidin-3(2H)-yl)-L-phenylalanine] |
| 7.30 to 8.00 | Cc1cc(CNC2CCCC2)ccc1S(=O)(=O)Nc1ccc(C(=O)N[C@@H](Cc2ccc(-n3c(=O)c4ccncc4n(C)c3=O)cc2)C(=O)O)c(F)c1 [Example 181, N-{4-[({4-[(Cyclopentylamino)methyl]-2-methylphenyl}sulfonyl)amino]-2-fluorobenzoyl}-4-(1-methyl-2,4-dioxo-1,4-dihydropyrido[3,4-d]pyrimidin-3(2H)-yl)-L-phenylalanine] |
